Tests used:
CYP2C9 [1] = target: T1, CYP2C9 (Homo sapiens, UniProt P11712); assay: Biological Test Example 9: CYP2C9 inhibition (Invitrogen kit, fluorogenic OOMR); assay type: in vitro ADME
T1 construct: purchased Invitrogen 2859; host or cells: insect cells infected with baculovirus (microsomes)

11β-HSD1 [2] = target: T2, 11β-HSD1 (Homo sapiens, UniProt P28845); assay: biochemical; settings: for inhibition at 0.1 µM: read-out: Average % inhibition at 100 nM
CYP3A4 = CYP3A4 (Homo sapiens, UniProt P08684); assay: Biological Test Example 6: CYP3A4 inhibition (erythromycin N-demethylation); assay type: in vitro ADME
CYP3A4, sequence (P08684 whole entry): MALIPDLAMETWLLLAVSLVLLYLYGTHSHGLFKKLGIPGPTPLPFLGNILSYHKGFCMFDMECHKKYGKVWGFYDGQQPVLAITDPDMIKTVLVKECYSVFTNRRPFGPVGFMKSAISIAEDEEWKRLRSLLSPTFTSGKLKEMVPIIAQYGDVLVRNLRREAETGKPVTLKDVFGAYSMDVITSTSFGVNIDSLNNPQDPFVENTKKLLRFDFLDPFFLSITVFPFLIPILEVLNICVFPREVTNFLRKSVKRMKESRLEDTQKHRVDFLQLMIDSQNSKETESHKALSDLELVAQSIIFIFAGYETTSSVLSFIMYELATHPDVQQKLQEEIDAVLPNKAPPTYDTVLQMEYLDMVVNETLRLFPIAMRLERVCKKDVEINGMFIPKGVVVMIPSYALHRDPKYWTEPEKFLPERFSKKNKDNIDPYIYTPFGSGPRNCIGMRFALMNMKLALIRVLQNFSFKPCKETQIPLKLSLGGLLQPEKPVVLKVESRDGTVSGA

11β-HSD1 [3] = target: T2, 11β-HSD1; assay: Biological Test Example 4: microsomal 11β-HSD1 in the presence of 50% human plasma; settings: for Shift: IC50 in Test Example 4 divided by IC50 in Test Example 1
CYP2C9 [4] = target: T1, CYP2C9; assay: Biological Test Example 7: CYP2C9 inhibition (naproxen O-demethylation); assay type: in vitro ADME
[5] = Biological Test Example 1 IC50 (nM)
[6] = IC50 Range, Biological Test Example 1

T2 sequence (P28845 whole entry): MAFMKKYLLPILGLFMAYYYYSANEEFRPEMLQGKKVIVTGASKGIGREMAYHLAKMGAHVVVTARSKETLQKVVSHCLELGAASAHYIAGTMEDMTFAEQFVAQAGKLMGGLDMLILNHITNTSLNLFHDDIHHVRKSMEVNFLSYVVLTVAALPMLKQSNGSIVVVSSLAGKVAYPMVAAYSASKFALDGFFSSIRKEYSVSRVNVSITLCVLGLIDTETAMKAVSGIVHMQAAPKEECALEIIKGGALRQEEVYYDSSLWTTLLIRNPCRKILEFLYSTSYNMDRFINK
T1 sequence (P11712 whole entry): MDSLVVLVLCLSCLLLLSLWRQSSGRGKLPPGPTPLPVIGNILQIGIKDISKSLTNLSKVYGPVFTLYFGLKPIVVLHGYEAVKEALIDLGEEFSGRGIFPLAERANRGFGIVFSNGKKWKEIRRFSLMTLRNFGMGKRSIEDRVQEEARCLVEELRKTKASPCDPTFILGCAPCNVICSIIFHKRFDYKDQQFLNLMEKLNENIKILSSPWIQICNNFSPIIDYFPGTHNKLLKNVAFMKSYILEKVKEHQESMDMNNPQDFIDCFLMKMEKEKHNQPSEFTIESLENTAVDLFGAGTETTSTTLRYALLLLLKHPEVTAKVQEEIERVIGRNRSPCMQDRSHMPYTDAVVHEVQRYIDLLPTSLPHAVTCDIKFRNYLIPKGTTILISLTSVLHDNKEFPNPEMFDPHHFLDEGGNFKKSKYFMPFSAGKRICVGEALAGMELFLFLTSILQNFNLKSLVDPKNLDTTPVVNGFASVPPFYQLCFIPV

| IC50 (CYP2C9 [1]) | IC50 (11β-HSD1 [2]; [5]) | IC50 (11β-HSD1 [2]; [6]) | inhibition at 0.1 µM (11β-HSD1 [2]) | IC50 (CYP3A4) | IC50 (11β-HSD1 [3]) | IC50 (CYP2C9 [4]) | Shift (11β-HSD1 [3]) | SMILES |
| --- | --- | --- | --- | --- | --- | --- | --- | --- |
| 5100 nM |  |  |  |  |  |  |  | C[C@@H](c1ccc(-c2cccnc2)cc1)N1CC[C@](CCO)(c2ccccc2)OC1=O [EXAMPLE 34, (S)-6-(2-hydroxyethyl)-6-phenyl-3-((S)-1-(4-(pyridin-3-yl)phenyl)ethyl)-1,3-oxazinan-2-one] |
|  | 0.7 nM | < 100 nM | 96.4% | 16700 nM | 7.3 nM | 12900 nM |  | Cc1nc(-c2ccc([C@H](C)N3CC[C@](CC(C)(C)O)(c4ccccc4)OC3=O)cc2)ccc1C#N [EXAMPLE 1, 6-(4-((S)-1-((S)-6-(2-hydroxy-2-methylpropyl)-2-oxo-6-phenyl-1,3-oxazinan-3-yl)ethyl)phenyl)-2-methylnicotinonitrile] |
|  | 1.8 nM | < 100 nM | 95.8% | 7300 nM | 19.8 nM |  |  | Cc1cc(-c2ccc([C@H](C)N3CC[C@](CCC(N)=O)(c4ccc(F)cc4)OC3=O)cc2)ccn1 [EXAMPLE 78, 3-((R)-6-(4-fluorophenyl)-3-((S)-1-(4-(2-methylpyridin-4-yl)phenyl)ethyl)-2-oxo-1,3-oxazinan-6-yl)propanamide] |
|  | 1.4 nM | < 100 nM | 97.8% | 42200 nM | 6.3 nM |  |  | Cc1cc(-c2ccc([C@H](C)N3CC[C@](CCC(N)=O)(c4ccccc4)OC3=O)cc2)ccn1 [EXAMPLE 98, 3-((R)-3-((S)-1-(4-(2-methylpyridin-4-yl)phenyl)ethyl)-2-oxo-6-phenyl-1,3-oxazinan-6-yl)propanamide] |
|  | 1.2 nM | < 100 nM | 99.4% |  | 22.2 nM |  | 18.2 | C[C@@H](c1ccc(-c2cc(C#N)ccn2)cc1)N1CC[C@](CC(C)(C)O)(c2ccccc2)OC1=O [EXAMPLE 164, 2-(4-((S)-1-((S)-6-(2-hydroxy-2-methylpropyl)-2-oxo-6-phenyl-1,3-oxazinan-3-yl)ethyl)phenyl)isonicotinonitrile] |
|  | 2.9 nM | < 100 nM | 91.5% |  | 31.9 nM |  | 11.0 | C[C@@H](c1ccc(-c2ccc(C(F)(F)F)cn2)cc1)N1CC[C@](CCCO)(c2ccc(F)cc2)OC1=O [EXAMPLE 109, (R)-6-(4-fluorophenyl)-6-(3-hydroxypropyl)-3-((S)-1-(4-(5-(trifluoromethyl)pyridin-2-yl)phenyl)ethyl)-1,3-oxazinan-2-one] |
|  | 1.3 nM | < 100 nM | 95.6% |  | 9.7 nM |  |  | COc1ccc(-c2ccc([C@H](C)N3CC[C@](CCC(N)=O)(c4ccc(F)cc4)OC3=O)cc2)cn1 [EXAMPLE 66, 3-((R)-6-(4-fluorophenyl)-3-((S)-1-(4-(6-methoxypyridin-3-yl)phenyl)ethyl)-2-oxo-1,3-oxazinan-6-yl)propanamide] |
|  | 1.7 nM | < 100 nM | 94.7% |  | 9.2 nM |  | 5.4 | C[C@@H](c1ccc(-c2cnc(C#N)cn2)cc1)N1CC[C@](CC(C)(C)O)(c2ccc(F)cc2)OC1=O [EXAMPLE 153, 5-(4-((S)-1-((S)-6-(4-fluorophenyl)-6-(2-hydroxy-2-methylpropyl)-2-oxo-1,3-oxazinan-3-yl)ethyl)phenyl)pyrazine-2-carbonitrile] |
|  | 8.6 nM | < 100 nM | 86.2% |  | 315 nM |  | 36.5 | C=CC[C@]1(c2ccc(F)cc2)CCN([C@@H](C)c2ccc(-n3ccc(C(F)(F)F)n3)cc2)C(=O)O1 [EXAMPLE 43, (R)-6-allyl-6-(4-fluorophenyl)-3-((S)-1-(4-(3-(trifluoromethyl)-1H-pyrazol-1-yl)phenyl)ethyl)-1,3-oxazinan-2-one] |
|  | 2.9 nM | < 100 nM | 96.3% |  | 27.4 nM |  | 9.6 | C[C@@H](c1ccc(-c2cncc(C#N)n2)cc1)N1CC[C@](CC(C)(C)O)(c2ccc(F)cc2)OC1=O [EXAMPLE 157, 6-(4-((S)-1-((S)-6-(4-fluorophenyl)-6-(2-hydroxy-2-methylpropyl)-2-oxo-1,3-oxazinan-3-yl)ethyl)phenyl)pyrazine-2-carbonitrile] |
|  | 3.6 nM | < 100 nM | 94.3% |  | 63 nM |  | 17.3 | CC(=O)N(C)CCC[C@]1(c2ccccc2)CCN([C@@H](C)c2ccc(-c3ccnc(C)c3)cc2)C(=O)O1 [EXAMPLE 102, N-methyl-N-(3-((R)-3-((S)-1-(4-(2-methylpyridin-4-yl)phenyl)ethyl)-2-oxo-6-phenyl-1,3-oxazinan-6-yl)propyl)acetamide] |
|  | 0.8 nM | < 100 nM | 101% |  | 15.2 nM |  | 18.4 | COc1ccc(-c2ccc([C@H](C)N3CC[C@](CCO)(c4ccc(F)cc4)OC3=O)cc2)cn1 [EXAMPLE 63, (S)-6-(4-fluorophenyl)-6-(2-hydroxyethyl)-3-((S)-1-(4-(6-methoxypyridin-3-yl)phenyl)ethyl)-1,3-oxazinan-2-one] |
|  | 1.4 nM | < 100 nM | 89.7% |  | 186 nM |  | 129.7 | C[C@@H](c1ccc(-c2cccc(OC3CCCC3)n2)cc1)N1CC[C@](CC(C)(C)O)(c2ccccc2)OC1=O [EXAMPLE 28, (S)-3-((S)-1-(4-(6-(cyclopentyloxy)pyridin-2-yl)phenyl)ethyl)-6-(2-hydroxy-2-methylpropyl)-6-phenyl-1,3-oxazinan-2-one] |
|  | 0.8 nM | < 100 nM | 99% |  | 2.9 nM |  | 3.8 | C[C@@H](c1ccc(-c2ccc(C(=O)NC3CC3)cn2)cc1)N1CC[C@](CC(C)(C)C#N)(c2ccccc2)OC1=O [EXAMPLE 2, 6-(4-((S)-1-((R)-6-(2-cyano-2-methylpropyl)-2-oxo-6-phenyl-1,3-oxazinan-3-yl)ethyl)phenyl)-N-cyclopropylnicotinamide] |
|  | 0.8 nM | < 100 nM | 96.9% |  | 4.4 nM |  | 5.2 | C[C@@H](c1ccc(-c2ncc(C(=O)NC(C)(C)C)s2)cc1)N1CC[C@](CC(C)(C)C#N)(c2ccccc2)OC1=O [EXAMPLE 24, N-tert-butyl-2-(4-((S)-1-((R)-6-(2-cyano-2-methylpropyl)-2-oxo-6-phenyl-1,3-oxazinan-3-yl)ethyl)phenyl)thiazole-5-carboxamide] |
|  | 2.6 nM | < 100 nM | 91% |  | 21.4 nM |  |  | C[C@@H](c1ccc(-c2cccnc2)cc1)N1CC[C@](CCC(N)=O)(c2ccccc2)OC1=O [EXAMPLE 47, 3-((R)-2-oxo-6-phenyl-3-((S)-1-(4-(pyridin-3-yl)phenyl)ethyl)-1,3-oxazinan-6-yl)propanamide] |
|  | 1 nM | < 100 nM | 99.4% |  | 19.2 nM |  | 18.8 | C[C@@H](c1ccc(-c2ccccn2)cc1)N1CC[C@](CCO)(c2ccc(F)cc2)OC1=O [EXAMPLE 57, (S)-6-(4-fluorophenyl)-6-(2-hydroxyethyl)-3-((S)-1-(4-(pyridin-2-yl)phenyl)ethyl)-1,3-oxazinan-2-one] |
|  | 1.4 nM | < 100 nM | 87.2% |  | 31.7 nM |  | 21.9 | CCOc1cc(-c2ccc([C@H](C)N3CC[C@](CC(C)(C)O)(c4ccccc4)OC3=O)cc2)cc(C)n1 [EXAMPLE 162, (S)-3-((S)-1-(4-(2-ethoxy-6-methylpyridin-4-yl)phenyl)ethyl)-6-(2-hydroxy-2-methylpropyl)-6-phenyl-1,3-oxazinan-2-one] |
|  | 1.9 nM | < 100 nM | 98.5% |  | 8.2 nM |  | 4.3 | Cc1cc(-c2ccc([C@H](C)N3CC[C@](CCNS(C)(=O)=O)(c4ccccc4)OC3=O)cc2)ccn1 [EXAMPLE 103, N-(2-((S)-3-((S)-1-(4-(2-methylpyridin-4-yl)phenyl)ethyl)-2-oxo-6-phenyl-1,3-oxazinan-6-yl)ethyl)methanesulfonamide] |
|  | 1.8 nM | < 100 nM | 98.1% |  | 7.1 nM |  | 4.0 | C[C@@H](c1ccc(-c2cnccn2)cc1)N1CC[C@](CCCO)(c2ccc(F)cc2)OC1=O [EXAMPLE 108, (R)-6-(4-fluorophenyl)-6-(3-hydroxypropyl)-3-((S)-1-(4-(pyrazin-2-yl)phenyl)ethyl)-1,3-oxazinan-2-one] |
|  | 2 nM | < 100 nM | 90.8% |  | 29.7 nM |  | 15.1 | Cc1cc(-c2ccc([C@H](C)N3CC[C@](CCCN(C)S(C)(=O)=O)(c4ccccc4)OC3=O)cc2)ccn1 [EXAMPLE 119, N-methyl-N-(3-((R)-3-((S)-1-(4-(2-methylpyridin-4-yl)phenyl)ethyl)-2-oxo-6-phenyl-1,3-oxazinan-6-yl)propyl)methanesulfonamide] |
|  | 1.4 nM | < 100 nM | 95.7% |  | 4.7 nM |  |  | C[C@@H](c1ccc(-c2ccncc2)cc1)N1CC[C@](CCC(N)=O)(c2ccc(F)cc2)OC1=O [EXAMPLE 74, 3-((R)-6-(4-fluorophenyl)-2-oxo-3-((S)-1-(4-(pyridin-4-yl)phenyl)ethyl)-1,3-oxazinan-6-yl)propanamide] |
|  | 2.5 nM | < 100 nM | 94.5% |  | 6.5 nM |  | 2.6 | Cc1cc(-c2ccc([C@H](C)N3CC[C@](CCCO)(c4ccc(F)cc4)OC3=O)cc2)cc(C)[n+]1[O-] [EXAMPLE 122, 4-(4-((S)-1-((R)-6-(4-fluorophenyl)-6-(3-hydroxypropyl)-2-oxo-1,3-oxazinan-3-yl)ethyl)phenyl)-2,6-dimethylpyridine 1-oxide] |
